# Target: T1, CCR2 (Homo sapiens, UniProt P41597)
# T1 construct: expressed in transfected cells
# Assay: CCR2 calcium activity assay (FLIPR Tetra) in HEK-Gqi5 cells stably expressing CCR2
# Format: cell-based
# Settings: calcium activity on FLIPR Tetra, chemokine positive control agonist; for IC50: read-out: IC50 (nM), activity at CCR2 receptor
# Protocol: HEK-Gqi5 cells stably expressing CCR2 were cultured in DMEM high glucose, 10% FBS, 1% PSA, 400 μg/ml geneticin and 50 μg/ml hygromycin. Appropriate positive control chemokines (MCP-1, MIP1A or RANTES) was used as the positive control agonist for screening compound-induced calcium activity assayed on the FLIPR^Tetra. The drug plates were prepared in 384-well microplates using the EP3 and the MultiPROBE robotic liquid handling systems. Compounds were synthesized and tested for CCR2 activity.
# T1 sequence (P41597 whole entry, species assumed): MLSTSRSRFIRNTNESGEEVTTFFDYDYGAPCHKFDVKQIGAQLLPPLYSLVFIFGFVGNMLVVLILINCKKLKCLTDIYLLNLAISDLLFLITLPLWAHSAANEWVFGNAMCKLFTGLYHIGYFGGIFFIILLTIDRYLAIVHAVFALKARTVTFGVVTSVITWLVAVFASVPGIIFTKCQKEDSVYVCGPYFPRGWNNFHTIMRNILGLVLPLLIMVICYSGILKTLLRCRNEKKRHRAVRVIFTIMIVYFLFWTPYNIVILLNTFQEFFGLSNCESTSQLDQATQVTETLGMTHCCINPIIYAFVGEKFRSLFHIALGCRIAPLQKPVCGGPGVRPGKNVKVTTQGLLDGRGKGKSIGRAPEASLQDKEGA
% ANTAGONISM,IC50,Structure (SMILES)
46%,–,"O=S(=O)(Nc1cc(Cl)cnc1SCc1ccccc1)c1ccc(Cl)c(Cl)c1 [Compound 7, N-[2-(benzylsulfanyl)-5-chloropyridin-3-yl]-3,4-dichlorobenzenesulfonamide]"
77%,–,"O=S(=O)(Nc1cc(Cl)cnc1[S+]([O-])Cc1ccccc1)c1ccc(Cl)s1 (centres unmarked) [Compound 12, N-[2-(benzylsulfinyl)-5-chloropyridin-3-yl]-5-chlorothiophene-2-sulfonamide]"
60%,–,"O=S(=O)(Nc1cc(Cl)cnc1SCc1ccccc1)c1ccc(Cl)s1 [Compound 8, N-[2-(benzylsulfanyl)-5-chloropyridin-3-yl]-5-chlorothiophene-2-sulfonamide]"
89%,263 nM,"O=S(=O)(Cc1ccccc1)c1ncc(Cl)cc1NS(=O)(=O)c1ccc(Cl)s1 [Compound 11, N-[2-(benzylsulfonyl)-5-chloropyridin-3-yl]-5-chlorothiophene-2-sulfonamide]"
87%,119 nM,"O=S(=O)(Nc1cc(Cl)cnc1[S+]([O-])Cc1ccccc1)c1ccc(Cl)c(Cl)c1 (centres unmarked) [Compound 10, N-[2-(benzylsulfinyl)-5-chloropyridin-3-yl]-3,4-dichlorobenzenesulfonamide]"
101%,135 nM,"O=S(=O)(Cc1ccccc1)c1ncncc1NS(=O)(=O)c1cc2ccccc2o1 [Compound 2, N-[4-(benzylsulfonyl)pyrimidin-5-yl]-1-benzofuran-2-sulfonamide]"
94%,8 nM,"O=S(=O)(Nc1cc[n+]([O-])cc1SCc1ccccc1)c1cc2ccccc2o1 [Compound 5, N-[3-(benzylsulfanyl)-1-oxidopyridin-4-yl]-1-benzofuran-2-sulfonamide]"
44%,–,"O=S(=O)(Nc1cncnc1SCc1ccccc1)c1cc2ccccc2o1 [Compound 1, N-[4-(benzylsulfanyl)pyrimidin-5-yl]-1-benzofuran-2-sulfonamide]"
97%,37 nM,"O=S(=O)(Cc1ccccc1)c1ncc(Cl)cc1NS(=O)(=O)c1ccc(Cl)c(Cl)c1 [Compound 9, N-[2-(benzylsulfonyl)-5-chloropyridin-3-yl]-3,4-dichlorobenzenesulfonamide]"
100%,485 nM,"O=S(=O)(Nc1ccncc1SCc1ccccc1)c1cc2ccccc2o1 [Compound 4, N-[3-(benzylsulfanyl)pyridin-4-yl]-1-benzofuran-2-sulfonamide]"
95%,17 nM,"O=S(=O)(Cc1ccccc1)c1cnccc1NS(=O)(=O)c1cc2ccccc2o1 [Compound 6, N-[3-(benzylsulfonyl)pyridin-4-yl]-1-benzofuran-2-sulfonamide]"
95%,588 nM,"O=S(=O)(Nc1cncnc1[S+]([O-])Cc1ccccc1)c1cc2ccccc2o1 (centres unmarked) [Compound 3, N-[4-(benzylsulfinyl)pyrimidin-5-yl]-1-benzofuran-2-sulfonamide]"
